Where a SMILES comes first, the peptide text is derived from it. [ ]: non-standard residue; d: D form. Aib = CC(C)(N)C(=O)O
Assays:
[1] = Circular dichroism, relative content of secondary structure elements; format: physicochemical; parameters: key to α-Helix / β-Strands / β-Turns / Random: relative content as fraction, from CDSSTR deconvolution; details: CDSSTR deconvolution
Protocol: Circular dichroism (CD) spectra in the far-UV region (190-260 nm) were collected on a Jasco J-715 spectropolarimeter using a 0.1 cm path-length cuvette. Temperature was kept at 25°C by a Peltier device. Peptide concentration was determined from the absorption of the aromatic residues at 280 nm.
Peptides solutions: Bim-BH3Y and Bim-BH3YA2Aib were suspended in water and potassium hydroxide was added up to complete solubilization. 072RB was dissolved in water. Concentration of stock solutions was about 0.1 mg/ml. For circular dichroism measurements, stock solutions were diluted in 10 mM potassium phosphate buffer, pH 7.
The relative content of secondary structure elements was calculated with the deconvolution program CDSSTR [31] (Table 2). […] 072RB has the highest helical content in the set examined here (0.30 α-helix percent).

[2] = Peptides stability in medium with 10% FBS or in 100% FBS (HPLC-MS); format: in vitro ADME; details: 37°C
Protocol: Compounds were added to the medium solution of serum 10% or 100% FBS at the final concentration of 32 µM. Several extraction mixtures were attempted: MeOH; MeOH with 0,1% trifluoroacetic acid (TFA); (H2O: MeOH) 1:1, 1:4, 4;1. A perchloric acid (PCA) protein precipitation protocol was also tried. […] In both cases ice-cold methanol was added to the peptide solution. The mixture was centrifuged and the resulting supernatant was then added with ice-cold methanol (alone or containing 0,1% TFA) at a 1:1 final ratio and this procedure was repeated twice. Before extraction peptides were incubated in 10% FBS or 100% FBS at 37°C and, at different incubation times (0', 6, 24 and 48 hours), a sample of 50 µl was collected to be analyzed by HPLC-MS.

tumour cell lines = assay: Propidium iodide (PI) uptake test, cell viability; format: cell-based, human; details: treated for 4 days; data not shown
Protocol: PI uptake tests were performed to assess cell viability. Cells suspended in culture medium were incubated for 5 min with 3 µg/ml PI and analysed by flow cytometry. […] At least 10,000 events were acquired on a logarithmic scale from each sample.
Based on the results reported above we selected treatment concentrations of 5 µM and 10 µM for subsequent experiments. […] To evaluate whether the decreased cell growth was due to cell cycle arrest, cell death, or both, flow cytometry assays to assess cell viability and cell cycle behavior were performed. […] Flow cytometry measurements of DNA content and side scatter confirmed that the main cause of cell growth inhibition after 2 or 4 days of 072RB treatment at 5, 10 or 30 µM respectively, was cell death rather than cell cycle perturbation, as shown in Figure 3A for U937 cells. Three main cell populations can be observed in bivariate plots of side scatter (SSC) vs. DNA content (PI fluorescence), one with low SSC and normal DNA content (that accounts for cells "alive" in culture), another with high SSC and normal DNA content (cells undergoing "an early stage of apoptosis ") and another one with lower PI fluorescence (cells at "a late stage of apoptosis" and debris). The respective DNA histograms (projection of the dot plots on the x-axis) are reported for each plot. […]

[3] = relative content, 10 mM potassium phosphate buffer, pH 7, 25°C

CC[C@H](C)[C@H](NC(=O)[C@H](CCCNC(=N)N)NC(=O)[C@H](CCCNC(=N)N)NC(=O)[C@H](CC(C)C)NC(=O)[C@H](CCC(=O)O)NC(=O)[C@H](CCC(N)=O)NC(=O)C(C)(C)NC(=O)[C@@H](NC(=O)[C@H](Cc1ccc(O)cc1)NC(=O)[C@@H](NC(=O)[C@H](CCC(=O)O)NC(=O)[C@@H]1CCCN1C(=O)[C@H](CCCNC(=N)N)NC(=O)[C@H](CCSC)NC(=O)[C@@H](N)CC(=O)O)[C@@H](C)CC)[C@@H](C)CC)C(=O)NCC(=O)N[C@@H](CC(=O)O)C(=O)N[C@@H](C)C(=O)N[C@@H](Cc1ccccc1)C(=O)N[C@@H](CC(N)=O)C(=O)NC(C)(C)C(=O)N[C@@H](Cc1ccc(O)cc1)C(=O)N[C@@H](CCCCN)C(=O)N[C@@H](CCCCN)C(=O)N[C@@H](Cc1c[nH]c2ccccc12)C(=O)N[C@@H](CCCCN)C(=O)N[C@@H](CCSC)C(=O)N[C@@H](CCCNC(=N)N)C(=O)N[C@@H](CCCNC(=N)N)C(=O)N[C@@H](CC(N)=O)C(=O)N1CCC[C@H]1C(=O)N[C@@H](Cc1ccccc1)C(=O)N[C@@H](Cc1c[nH]c2ccccc12)C(=O)N[C@H](C(=O)N[C@@H](CCCCN)C(=O)N[C@H](C(=O)N[C@@H](CCC(N)=O)C(=O)N[C@@H](CCCNC(=N)N)C(N)=O)[C@@H](C)CC)[C@@H](C)CC [Peptide 072RB] (H-DMRPEIYI[Aib]QELRRIGDAFN[Aib]YKKWKMRRNPFWIKIQR-NH2; N-terminus and C-terminus assumed)
relative content of helices [1]: 0.30 α-helix percent
Random [1, 3]: 0.42
α-Helix [1, 3]: 0.30
β-Strands [1, 3]: 0.12
β-Turns [1, 3]: 0.15
half-life at 32 µM ([2]; RPMI 1640 medium with 10% fetal bovine serum (FBS), medium (RPMI 1640) with 10% FBS, calculated by linear regression): 36.5 h
half-life at 32 µM ([2]; bovine, 100% fetal bovine serum (FBS), 100% FBS): 17.8 h
cell death (PI uptake test) (tumour cell lines): dose-dependent cell death

Reference: patent EP1985629A1, “Pro-apoptotic molecules and therapeutic uses thereof” (UNIVERSITA DEGLI STUDI DI GENOVA, priority 2007, dated 2008)
